Test results from patent US20240158348A1, “HERBICIDAL CYCLIC AMIDES N-SUBSTITUTED WITH A HALOALKYLSULFONYLANILIDE GROUP” (FMC Corporation, priority 2021, published 2024).

What was measured:
Format in all cases: in vivo
[1] = system: ryegrass, Italian (Italian ryegrass, Lolium multiflorum); assay: Test C postemergence, Italian ryegrass; settings: for Ryegrass, Italian plant response rating: visual injury, 0 to 100 scale (0 no effect, 100 complete control); for Plant response rating (0 to 100 scale), Ryegrass, Italian: 0 is no effect, 100 is complete control
In short: (§1)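 Herbicidal effect was estimated visually on a 0–100 scale 10 or 12 days after spraying. Formulation: non-phytotoxic solvent mixture with surfactant. Timing: directed soil spray after sowing, or postemergence on seedlings bearing one or two leaves.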

[2] = system: wheat (Triticum aestivum); assay: Test C postemergence, wheat; settings: for Wheat plant response rating: visual injury, 0 to 100 scale (0 no effect, 100 complete control); for Plant response rating (0 to 100 scale), Wheat: 0 is no effect, 100 is complete control
In short: as §1

[3] = system: ragweed (common ragweed, Ambrosia artemisiifolia); assay: Test C preemergence, ragweed; settings: 0 is no effect, 100 is complete control
In short: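 Corn, ragweed and goosegrass were sown in loam/sand and given a preemergence directed soil spray of compounds in a non-phytotoxic solvent with surfactant. Galium was sprayed postemergence at 2–10 cm height, one- to two-leaf stage. After 10 or 12 days in a greenhouse, injury was rated visually against untreated controls on a 0 (no effect) to 100 (complete control) scale.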

[4] = system: ducksalad (Heteranthera limosa); assay: Test D flooded paddy test, ducksalad; design: key: 0 = no effect, 100 = complete control; settings: 250 g ai/ha, Flood; applied to paddy water at 2-leaf stage; visual rating after 13 days; scale 0 (no effect) to 100 (complete control)
In short: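 2-leaf plants; flood 3 cm over soil; cpd into paddy water; depth maintained; greenhouse 13 d; visual rating vs controls, 0 = no effect, 100 = complete control; dash = no result.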

[5] = system: blackgrass (Alopecurus myosuroides); assay: Test C postemergence, blackgrass; settings: 31 g ai/ha Postemergence; visual injury, 0 to 100 scale (0 no effect, 100 complete control)
In short: as §1

kochia (Bassia scoparia) = assay: Test C postemergence, kochia; settings: for Kochia plant response rating: 31 g ai/ha Postemergence, visual injury, 0 to 100 scale (0 no effect, 100 complete control); for Plant response rating (0 to 100 scale), Kochia: 125 g ai/ha Postemergence, 0 is no effect, 100 is complete control
In short: as §1

[6] = system: foxtail, giant (giant foxtail, Setaria faberi); assay: Test C postemergence, giant foxtail; settings: for Foxtail, Giant plant response rating: 31 g ai/ha Postemergence, visual injury, 0 to 100 scale (0 no effect, 100 complete control); for Plant response rating (0 to 100 scale), Foxtail, Giant: 125 g ai/ha Postemergence, 0 is no effect, 100 is complete control
corn (Zea mays) = assay: Test C postemergence, corn; settings: for Corn plant response rating: 31 g ai/ha Postemergence, visual injury, 0 to 100 scale (0 no effect, 100 complete control); for Plant response rating (0 to 100 scale), Corn: 125 g ai/ha Postemergence, 0 is no effect, 100 is complete control

Row | Structure (SMILES) | Ryegrass, Italian plant response rating ([1]; 31 g ai/ha Postemergence) | Ryegrass, Italian plant response rating ([1]; 125 g ai/ha Postemergence) | Wheat plant response rating ([2]; 31 g ai/ha Postemergence) | Wheat plant response rating ([2]; 125 g ai/ha Postemergence) | Plant response rating (0 to 100 scale), Ragweed ([3]; 31 g ai/ha Preemergence) | Plant response rating (0 to 100 scale), Ragweed ([3]; 125 g ai/ha Preemergence) | Plant response rating, Ducksalad [4] | Blackgrass plant response rating [5] | Kochia plant response rating (kochia (Bassia scoparia)) | Plant response rating (0 to 100 scale), Kochia (kochia (Bassia scoparia)) | Foxtail, Giant plant response rating [6] | Plant response rating (0 to 100 scale), Foxtail, Giant [6] | Corn plant response rating (corn (Zea mays)) | Plant response rating (0 to 100 scale), Corn (corn (Zea mays)) | Plant response rating (0 to 100 scale), Ryegrass, Italian ([1]; 125 g ai/ha Postemergence) | Plant response rating (0 to 100 scale), Wheat ([2]; 125 g ai/ha Postemergence)
1 | Cc1cc(C)c(N2CCC(OC3CC3)C2=O)cc1NS(=O)(=O)C(F)(F)F (single isomer, unassigned) [Compound 29] | 70 | 100 | 70 | 70 | 80 | 90 | 45 | 60 | 60 | 90 | 90 | 90 | 80 | 90 | – | –
2 | Cc1cc(C)c(N2CCC(OC3CC3)C2=O)cc1NS(=O)(=O)C(F)(F)F (single isomer, unassigned) [Compound 30] | 90 | 100 | 70 | 70 | 100 | 100 | 90 | 50 | 80 | 90 | 50 | 80 | 90 | 90 | – | –
3 | CO/N=C1\CCN(c2cc(NS(=O)(=O)C(F)(F)F)c(C)cc2C)C1=O [Compound 9, 1,1,1-trifluoro-N-[5-[3-(methoxyimino)-2-oxo-1-pyrrolidinyl]-2,4-dimethylphenyl]methanesulfonamide] | 50 | – | 80 | – | 50 | 90 | 95 | 80 | 80 | 90 | 40 | 90 | 90 | 90 | 80 | 80
4 | Cc1cc(C)c(N2CC/C(=N\O)C2=O)cc1NS(=O)(=O)C(F)(F)F [Compound 10, 1,1,1-trifluoro-N-[5-[3-(hydroxyimino)-2-oxo-1-pyrrolidinyl]-2,4-dimethylphenyl]methanesulfonamide] | 80 | – | 80 | – | 0 | 30 | 90 | 60 | 60 | 90 | 40 | 90 | 90 | 90 | 80 | 80
5 | C=CCO/N=C1\CCN(c2cc(NS(=O)(=O)C(F)(F)F)c(C)cc2C)C1=O [Compound 11] | 0 | – | 80 | – | 80 | 90 | 100 | 40 | 40 | 90 | 60 | 90 | 90 | 100 | 30 | 90
6 | CCO/N=C1\CCN(c2cc(NS(=O)(=O)C(F)(F)F)c(C)cc2C)C1=O [Compound 12, N-[5-[3-(ethoxyimino)-2-oxo-1-pyrrolidinyl]-2,4-dimethylphenyl]-1,1,1-trifluoromethanesulfonamide] | 70 | – | 80 | – | 100 | 100 | 100 | 80 | 90 | 90 | 90 | 90 | 100 | 100 | 80 | 90
7 | Cc1cc(C)c(N2CCC(O)C2=O)cc1NS(=O)(=O)C(F)(F)F (stereo not shown) [Compound 14] | 60 | – | 60 | – | 20 | 60 | 65 | 10 | 50 | 70 | 20 | 90 | 70 | 90 | 100 | 60
8 | CC(=O)N(c1cc(N2CCC(OC3CC3)C2=O)c(C)cc1C)S(=O)(=O)C(F)(F)F (stereo not shown) [Compound 17] | 60 | – | 70 | – | 80 | 90 | 95 | 70 | 80 | 90 | 90 | 90 | 90 | 90 | 90 | 70
9 | CCCC(=O)OCN(c1cc(N2CCC(OC3CC3)C2=O)c(C)cc1C)S(=O)(=O)C(F)(F)F (stereo not shown) [Compound 20] | 60 | – | 70 | – | 60 | 90 | 90 | 90 | 70 | 80 | 80 | 90 | 90 | 90 | 100 | 70
10 | Cc1cc(C)c(N2CCC(OCC3CC3)C2=O)cc1NS(=O)(=O)C(F)(F)F (stereo not shown) [Compound 22] | 70 | – | 50 | – | 50 | 100 | 90 | 20 | 60 | 70 | 20 | 60 | 50 | 90 | 80 | 60
11 | Cc1c(N2CCC(OC3CC3)C2=O)cc(N(COC(=O)C(C)(C)C)S(=O)(=O)C(F)(F)F)c(C)c1F (stereo not shown) [Compound 23] | 50 | – | 10 | – | 30 | 90 | 80 | 10 | 30 | 80 | 0 | 80 | 30 | 90 | 100 | 60
12 | Cc1c(NS(=O)(=O)C(F)(F)F)cc(N2CCC(OC3CCC3)C2=O)c(C)c1F (stereo not shown) [Compound 25] | 20 | 70 | 50 | 60 | 90 | 100 | 75 | 0 | 60 | 90 | 30 | 30 | 30 | 60 | – | –
13 | Cc1c(N2CCC(OC3CCC3)C2=O)cc(N(COC(=O)C(C)(C)C)S(=O)(=O)C(F)(F)F)c(C)c1F (stereo not shown) [Compound 28] | 40 | 40 | 20 | 60 | 40 | 100 | 70 | 10 | 50 | 80 | 30 | 70 | 10 | 30 | – | –
14 | Cc1cc(Cl)c(N(COC(=O)C(C)(C)C)S(=O)(=O)C(F)(F)F)cc1N1CCC(OC2CC2)C1=O (stereo not shown) [Compound 33] | 20 | 90 | 50 | 70 | 30 | 80 | 80 | 0 | 80 | 90 | 50 | 90 | 80 | 90 | – | –
